Results published in US10322110B2, “Imidazole-based antimicrobial agents” (priority 2014, dated 2019).
Converted amounts (≈) assume the structure as drawn. Where two headings read alike, the source gives them in different places.

What was measured:
[1] = system: Bacillus subtilis (Marburg strain, ATCC6051); experiment: microbe, parasite or virus in culture; assay type: cell-based; details: ATCC6051, read-out: Antibacterial activity BS (Bacillus substilis)
[2] = system: Human hepatocytes (HepaRG cells); experiment: human cytotoxicity assay in vitro (CellTiter-Glo), hepatocytes; assay type: cell-based; details: cytotoxicity class
[3] = system: Mycobacterium smegmatis (mc(2)155, ATCC700084); experiment: broth microdilution MIC assay, Mycobacterium smegmatis; details: MIC activity class
[4] = system: penicillin-, erythromycin- and tetracycline-resistant Streptococcus pneumoniae (ATCC 700677), ARSP; experiment: microbe, parasite or virus in culture; assay type: cell-based; details: ATCC700677, MIC activity class, read-out: Antibacterial activity ARSP (multi-drug resistant-SP)
[5] = system: Staphylococcus aureus MSSA (Newman); experiment: broth microdilution MIC assay, Staphylococcus aureus MSSA (Newman); assay type: cell-based; details: for Antibacterial activity Staphylococcus aureus (MSSA): MIC100 class score, broth microdilution; for MIC: Staphylococcus aureus
[6] = system: Staphylococcus epidermidis (PCI 1200, ATCC12228); experiment: broth microdilution MIC assay, Staphylococcus epidermidis; assay type: cell-based; details: ATCC12228, read-out: Antibacterial activity SE (Staphylococcus epidermidis)
[7] = system: Staphylococcus aureus MRSA (COL); experiment: broth microdilution MIC assay, Staphylococcus aureus MRSA (COL); assay type: cell-based; details: for MIC: Staphylococcus aureus, MRSA
[8] = system: vancomycin-resistant Staphylococcus aureus; experiment: broth microdilution MIC assay,  MRSA (COL); assay type: cell-based; details: read-out: MIC for the resistant strain
[9] = system: Escherichia coli TolC mutant strain ΔtoIC (K12 b3035 TolC; JW5503); assay type: cell-based; details: MIC activity class
[10] = read-out: Antibacterial activity MSSA (Staphylococcus aureus MSSA)
[11] = read-out: Antibacterial activity MRSA (Staphylococcus aureus MRSA)
[12] = 24 h, read-out: Antibacterial activity Staphylococcus aureus (MSSA)
[13] = MIC100 class score, broth microdilution, 24 h, read-out: Antibacterial activity Staphylococcus aureus (MRSA)

Cc1ccccc1-c1c[nH]c(-c2ccc(-c3ccccc3OC(F)(F)F)o2)n1 [Compound 66]
MIC [1]: 3 to 10 µg/mL (≈ 7.81 to 26 µM)
cytotoxicity cell line H (hepatocytes) [2]: 3
Antibacterial activity MS (Mycobacterium smegmatis) [3]: 2 (MIC100 of 11-201 μg/ml)
MIC [4]: 2 to 5 µg/mL (≈ 5.2 to 13 µM)
Antibacterial activity Staphylococcus aureus (MSSA) ([5]; 24 h): 3 (MIC100 of 3-10 μg/ml)
MIC [5, 10]: 3 to 10 µg/mL (≈ 7.81 to 26 µM)
MIC [6]: 20 to 50 µg/mL (≈ 52 to 130 µM)
Antibacterial activity Staphylococcus aureus (MRSA) ([7]; MIC100 class score, broth microdilution, 24 h): 2 (MIC100 of 11-201 μg/ml)
MIC [7, 11]: 11 to 201 µg/mL (≈ 28.6 to 523 µM)

CN[C@H](CC(C)C)C(=O)N[C@H]1C(=O)N[C@@H](CC(N)=O)C(=O)N[C@H]2C(=O)N[C@H]3C(=O)N[C@H](C(=O)N[C@H](C(=O)O)c4cc(O)cc(O)c4-c4cc3ccc4O)[C@H](O)c3ccc(c(Cl)c3)Oc3cc2cc(c3O[C@@H]2O[C@H](CO)[C@@H](O)[C@H](O)[C@H]2O[C@H]2C[C@](C)(N)[C@H](O)[C@H](C)O2)Oc2ccc(cc2Cl)[C@H]1O [vancomycin, Vancomycin]
MIC [8]: 20 µg/mL (≈ 13.8 µM)

Cc1nc(-c2ccc(-c3cccc(OC(F)(F)F)c3)o2)[nH]c1-c1ccc(F)cc1 [Compound 37]
MIC [1]: 3 to 10 µg/mL (≈ 7.46 to 24.9 µM)
cytotoxicity cell line H (hepatocytes) [2]: 3
Antibacterial activity MS (Mycobacterium smegmatis) [3]: 2 (MIC100 of 11-201 μg/ml)
MIC [4]: 2 to 5 µg/mL (≈ 4.97 to 12.4 µM)
Antibacterial activity Staphylococcus aureus (MSSA) ([5]; 24 h): 3 (MIC100 of 3-10 μg/ml)
MIC [5, 10]: 3 to 10 µg/mL (≈ 7.46 to 24.9 µM)
MIC [6]: 20 to 50 µg/mL (≈ 49.7 to 124 µM)
MIC [7, 11]: 3 to 10 µg/mL (≈ 7.46 to 24.9 µM)

CN(C)Cc1[nH]c(-c2ccc(-c3ccccc3C(F)(F)F)o2)nc1-c1ccccc1 [Compound 70]
MIC [1]: 20 to 50 µg/mL (≈ 48.6 to 122 µM)
cytotoxicity cell line H (hepatocytes) [2]: 3
Antibacterial activity EC Δ (Escherichia coli ΔtoIC) [9]: 3 (MIC100 of 3-10 μg/ml)
MIC [5, 12]: 20 to 50 µg/mL (≈ 48.6 to 122 µM)
MIC [5, 10]: 20 to 50 µg/mL (≈ 48.6 to 122 µM)
MIC [6]: 11 to 201 µg/mL (≈ 26.7 to 489 µM)
MIC [7, 11]: 20 to 50 µg/mL (≈ 48.6 to 122 µM)
MIC [7, 13]: 20 to 50 µg/mL (≈ 48.6 to 122 µM)

Cc1nc(-c2ccc(-c3ccc(Cl)cc3Cl)o2)[nH]c1-c1ccccc1 [Compound 1]
MIC [1]: 3 to 10 µg/mL (≈ 8.12 to 27.1 µM)
cytotoxicity cell line H (hepatocytes) [2]: 2
Antibacterial activity MS (Mycobacterium smegmatis) [3]: 2 (MIC100 of 11-201 μg/ml)
MIC [4]: < 1 µg/mL
MIC [5, 12]: 1 to 3 µg/mL (≈ 2.71 to 8.12 µM)
MIC [5, 10]: 1 to 3 µg/mL (≈ 2.71 to 8.12 µM)
MIC [6]: 3 to 10 µg/mL (≈ 8.12 to 27.1 µM)
MIC [7, 11]: 1 to 3 µg/mL (≈ 2.71 to 8.12 µM)
MIC [7, 13]: 1 to 3 µg/mL (≈ 2.71 to 8.12 µM)
